Legend:
[1] = system: T1, α-L-fucosidase (bovine kidney); test: Glycosidase inhibition (Table 2 panel); type: biochemical
T1 construct: purchased Sigma-Aldrich; host or cells: bovine kidney
How it was run: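 pNP-glycoside substrate […], optimum pH per enzyme, […]; quench Na2CO3 […]; A400 for liberated p-nitrophenol.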

[2] = system: T2, amyloglucosidase (A. niger); test: Glycosidase inhibition (Table 2 panel); type: biochemical
T2 construct: purchased Sigma-Aldrich
Text: (§1) The enzymes α-D-glucosidase (yeast), β-D-glucosidases (almond, bovine liver), α-D-galactosidase (coffee beans), β-D-galactosidase (bovine liver), α-D-mannosidase (Jack bean), β-D-mannosidase (snail), α-L-rhamnosidase (P. decumbens), α-L-fucosidase (bovine kidney), trehalase (porcine kidney), β-D-glucuronidases (E. coli, bovine liver), amyloglucosidase (A. niger), para-nitrophenyl glycosides, and various disaccharides were purchased from Sigma-Aldrich Co (St. Louis, MO, USA).
(§2) Brush border membranes were prepared from the rat small intestine according to the method of Kessler et al., and were assayed at pH 6.8 for rat intestinal maltase using maltose. […] The reaction was stopped by heating at 100 °C for 3 min. After centrifugation (600 g; 10 min), the resulting reaction mixture was added to the Glucose CII-test Wako (Wako Pure Chemical Ind., Osaka, Japan). […] Other glycosidase activities were determined using an appropriate para-nitrophenyl glycoside as substrate at the optimum pH of each enzyme. The reaction mixture contained the substrate ([…]) and the appropriate amount of enzyme. The reaction was stopped by the addition of Na2CO3 (400 μM). The released para-nitrophenol was measured spectrometrically at 400 nm. All reactions were run in methanol.

α-D-glucosidase (yeast) [3] = target: T3, α-D-glucosidase (yeast) (Saccharomyces cerevisiae, UniProt P53341); test: Glycosidase inhibition (Table 2 panel); type: biochemical; conditions: read-out: inhibition % α-D-Glucosidase Yeast
T3 construct: purchased Sigma-Aldrich
T3 sequence (P53341 whole entry): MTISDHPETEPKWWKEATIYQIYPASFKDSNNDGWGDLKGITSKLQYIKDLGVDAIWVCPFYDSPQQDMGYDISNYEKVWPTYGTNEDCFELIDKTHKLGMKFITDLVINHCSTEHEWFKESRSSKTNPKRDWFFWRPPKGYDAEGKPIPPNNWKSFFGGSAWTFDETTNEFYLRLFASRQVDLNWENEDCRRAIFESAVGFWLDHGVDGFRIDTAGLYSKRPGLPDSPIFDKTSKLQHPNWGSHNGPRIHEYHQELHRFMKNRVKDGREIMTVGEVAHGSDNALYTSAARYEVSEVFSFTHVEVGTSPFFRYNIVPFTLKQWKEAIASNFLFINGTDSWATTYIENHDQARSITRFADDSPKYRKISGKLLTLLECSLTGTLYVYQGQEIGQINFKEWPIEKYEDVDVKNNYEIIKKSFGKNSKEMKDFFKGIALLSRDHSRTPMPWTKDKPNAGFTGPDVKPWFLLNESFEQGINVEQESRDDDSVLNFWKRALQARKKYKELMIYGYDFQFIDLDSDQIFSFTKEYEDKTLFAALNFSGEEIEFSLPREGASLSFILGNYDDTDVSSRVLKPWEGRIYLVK
Text: as §1, §2

[4] = system: T4, β-D-glucuronidase (E. coli); test: Glycosidase inhibition (Table 2 panel); type: biochemical
T4 construct: purchased Sigma-Aldrich
Text: as §1, §2

α-D-glucosidase (yeast) [5] = target: T3, α-D-glucosidase (yeast); test: Glycosidase inhibition (Table 3 panel); type: biochemical; conditions: 1 mg/mL aqueous solution, run in water; for inhibition at 1000 µg/mL (stock): read-out: Percentage inhibition α-D-Glucosidase Yeast
Protocol: All enzymes and para-nitrophenyl substrates were purchased from Sigma. Enzymes were assayed at 27 °C in citric acid (0.1 M)/disodium hydrogen phosphate (0.2 M) buffers at the optimum pH for the enzyme. The incubation mixture consisted of […] of 1 mg/mL aqueous solution of extract and […] of the appropriate 5 μM para-nitrophenyl substrate made up in buffer at the optimum pH for the enzyme. […] Assays were carried out in triplicate, and the values given are means of the three replicates per assay. All reactions were run in water.

β-D-glucosidase (almond) = test: Glycosidase inhibition (Table 3 panel); type: biochemical; conditions: 1 mg/mL aqueous solution; run in water
Protocol: (§3) All enzymes and para-nitrophenyl substrates were purchased from Sigma. Enzymes were assayed at 27 °C in citric acid (0.1 M)/disodium hydrogen phosphate (0.2 M) buffers at the optimum pH for the enzyme. The incubation mixture consisted of […] of 1 mg/mL aqueous solution of extract and […] of the appropriate […] para-nitrophenyl substrate made up in buffer at the optimum pH for the enzyme. The reactions were stopped by addition of […] 0.4 M glycine (pH 10.4) during the exponential phase of the reaction, which had been determined at the beginning using uninhibited assays in which water replaced the inhibitor. Final absorbances were read at 405 nm using a Versamax microplate reader (Molecular Devices, Wokingham, UK). Assays were carried out in triplicate, and the values given are means of the three replicates per assay. All reactions were run in water.

[6] = system: β-D-glucuronidase (bovine liver); test: Glycosidase inhibition (Table 3 panel); type: biochemical; conditions: 1 mg/mL aqueous solution; run in water
Protocol: as §3

A431 (skin carcinoma) = test: Cancer screening, MTT growth inhibition; type: cell-based; conditions: Homo sapiens; for inhibition at 25 µM: A-431, 25 µM of drug, 72 h, read-out: DOSE SCREEN percentage (%) cell growth inhibition A431 Skin; for GI50: A-431, 72 h, read-out: DOSE RESPONSE GI50 A431 Skin
How it was run: (§4)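 MTT read-out; […]. Cells in DMEM + 10% FBS, 37 °C/5% CO2, plated 2500–4000 per well, dosed on day 0 (24 h post-plating). Mean ± SEM, n = 3 separate occasions.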

[7] = system: HT29 (colorectal carcinoma); test: Cancer screening, MTT growth inhibition; type: cell-based; conditions: Homo sapiens; for inhibition at 25 µM: HT-29, 25 µM of drug, 72 h, read-out: DOSE SCREEN percentage (%) cell growth inhibition HT29 Colon; for GI50: HT-29, 72 h, read-out: DOSE RESPONSE GI50 HT29 Colon
How it was run: as §4

| SMILES | inhibition % α-L-Fucosidase Bovine Kidney ([1]; at 1000 μM) | inhibition % Amyloglucosidase A. niger ([2]; at 100 μM) | inhibition % Amyloglucosidase A. niger ([2]; at 1000 μM) | inhibition at 100 µM (α-D-glucosidase (yeast) [3]) | inhibition at 1000 µM (α-D-glucosidase (yeast) [3]) | inhibition % β-D-Glucuronidase E. coli ([4]; at 100 μM) | inhibition % β-D-Glucuronidase E. coli ([4]; at 1000 μM) | inhibition at 1000 µg/mL (stock) (α-D-glucosidase (yeast) [5]) | Percentage inhibition β-D-Glucosidase Almond (β-D-glucosidase (almond)) | Percentage inhibition β-D-Glucuronidase Bovine Liver [6] | inhibition at 25 µM (A431 (skin carcinoma)) | GI50 (A431 (skin carcinoma)) | inhibition at 25 µM [7] | GI50 [7] | inhibition % α-L-Fucosidase Bovine Kidney ([1]; at 100 μM) | Percentage inhibition α-D-Glucosidase Yeast (α-D-glucosidase (yeast) [5]) |
| --- | --- | --- | --- | --- | --- | --- | --- | --- | --- | --- | --- | --- | --- | --- | --- | --- |
| OB(O)c1ccccc1CN1C[C@@H](O)[C@H]2OC(O)[C@H](O)[C@H]21 (stereo partly drawn) [ortho 3, N-(2-Methylphenylboronic acid)-3,6-dideoxy-3,6-imino-D-gulofuranose] | ^aNI ^b(2.1%) | ^cNI ^d(0%) | ^aNI ^b(2.1%) | 2.9% | 1% | ^cNI ^d(0%) | ^aNI ^b(8.4%) | 4.1% | 68.6% | 1.3% | 3 ± 1% | > 50 µM | < 0% | > 50 µM | – | – |
| OC[C@H](O)[C@@H]1[C@H](O)[C@H](O)CN1Cc1cccc(B(O)O)c1 [meta 4, N-(3-Methylphenylboronic acid)-1,4-dideoxy-1,4-imino-L-gulitol] | ^aNI ^b(3.0%) | ^cNI ^d(6.6%) | ^aNI ^b(3.6%) | 8.1% | 4.9% | ^cNI ^d(3.5%) | ^aNI ^b(20.6%) | 23.5% | 47.9% | −2.7% | 6 ± 1% | > 50 µM | < 0% | > 50 µM | – | – |
| N[C@@H](Cc1ccc(B(O)O)cc1)C(=O)O [BPA, 4-borono-L-phenylalanine, reference compound] | – | ^cNI ^d(0%) | – | – | – | ^cNI ^d(0.5%) | – | – | 3.9% | −0.7% | 4% | – | 14% | – | ^cNI ^d(0%) | – |
| CC1(C)O[C@H]2O[C@H]3[C@@H]([C@H]2O1)N(Cc1ccccc1B(O)O)C[C@H]3O [ortho 5] | – | ^cNI ^d(4.9%) | – | 0% | – | ^cNI ^d(1.2%) | – | 8.7% | 8.7% | 1.4% | 9 ± 4% | > 50 µM | 4 ± 4% | > 50 µM | – | 11% |
| CC1(C)O[C@H]2O[C@H]3[C@@H]([C@H]2O1)N(Cc1cccc(B(O)O)c1)C[C@H]3O [meta 5, N-(3-Methylphenylboronic acid)-3,6-dideoxy-3,6-imino-1,2-O-isopropylidene-α-D-glucofuranose] | – | ^cNI ^d(0%) | – | 7.8% | – | ^cNI ^d(4.1%) | – | 14.8% | 7.7% | −0.9% | 8 ± 8% | > 50 µM | < 0% | > 50 µM | – | 13.7% |
| CC1(C)O[C@H]2O[C@H]3[C@@H]([C@H]2O1)N(Cc1cccc(O)c1)C[C@H]3O [meta 6] | – | ^cNI ^d(4.8%) | – | 0% | – | ^cNI ^d(0%) | – | 6.6% | 0.7% | 3.6% | 4 ± 9% | > 50 µM | 4 ± 3% | > 50 µM | – | – |

Reference: paper PMC12655172, “Borylated 5-Membered Ring Iminosugars: Synthesis and Biological Evaluation for Glycosidase Inhibition and Anticancer Properties for Application in Boron Neutron Capture Therapy (BNCT)—Part 2” (Pharmaceuticals, 2025)
